Data reported in ChEMBL document CHEMBL3991601, “The target landscape of clinical kinase drugs” (Science, 2017).
The source made the active and inactive calls. For most assays here, no stated cut-off is given here; in the data, actives have a measured Kd and inactives only a lower limit.

Assays:
Pyridoxal kinase = molecular target: T1, Pyridoxal kinase (Homo sapiens, UniProt O00764)
T1 sequence (O00764 whole entry): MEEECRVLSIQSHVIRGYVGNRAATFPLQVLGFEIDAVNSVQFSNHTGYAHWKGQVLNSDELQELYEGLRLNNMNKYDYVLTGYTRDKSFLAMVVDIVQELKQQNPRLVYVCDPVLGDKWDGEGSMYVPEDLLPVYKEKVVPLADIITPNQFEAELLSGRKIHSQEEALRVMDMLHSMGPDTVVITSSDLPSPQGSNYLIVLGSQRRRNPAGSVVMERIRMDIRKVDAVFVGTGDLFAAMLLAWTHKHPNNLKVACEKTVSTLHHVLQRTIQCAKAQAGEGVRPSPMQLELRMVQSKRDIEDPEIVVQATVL

[1] = molecular target: Serine/threonine-protein kinase N2 (Homo sapiens, UniProt Q16513)
Ephrin type-B receptor 2 = molecular target: T2, Ephrin type-B receptor 2 (Homo sapiens, UniProt P29323)
T2 sequence (P29323 whole entry): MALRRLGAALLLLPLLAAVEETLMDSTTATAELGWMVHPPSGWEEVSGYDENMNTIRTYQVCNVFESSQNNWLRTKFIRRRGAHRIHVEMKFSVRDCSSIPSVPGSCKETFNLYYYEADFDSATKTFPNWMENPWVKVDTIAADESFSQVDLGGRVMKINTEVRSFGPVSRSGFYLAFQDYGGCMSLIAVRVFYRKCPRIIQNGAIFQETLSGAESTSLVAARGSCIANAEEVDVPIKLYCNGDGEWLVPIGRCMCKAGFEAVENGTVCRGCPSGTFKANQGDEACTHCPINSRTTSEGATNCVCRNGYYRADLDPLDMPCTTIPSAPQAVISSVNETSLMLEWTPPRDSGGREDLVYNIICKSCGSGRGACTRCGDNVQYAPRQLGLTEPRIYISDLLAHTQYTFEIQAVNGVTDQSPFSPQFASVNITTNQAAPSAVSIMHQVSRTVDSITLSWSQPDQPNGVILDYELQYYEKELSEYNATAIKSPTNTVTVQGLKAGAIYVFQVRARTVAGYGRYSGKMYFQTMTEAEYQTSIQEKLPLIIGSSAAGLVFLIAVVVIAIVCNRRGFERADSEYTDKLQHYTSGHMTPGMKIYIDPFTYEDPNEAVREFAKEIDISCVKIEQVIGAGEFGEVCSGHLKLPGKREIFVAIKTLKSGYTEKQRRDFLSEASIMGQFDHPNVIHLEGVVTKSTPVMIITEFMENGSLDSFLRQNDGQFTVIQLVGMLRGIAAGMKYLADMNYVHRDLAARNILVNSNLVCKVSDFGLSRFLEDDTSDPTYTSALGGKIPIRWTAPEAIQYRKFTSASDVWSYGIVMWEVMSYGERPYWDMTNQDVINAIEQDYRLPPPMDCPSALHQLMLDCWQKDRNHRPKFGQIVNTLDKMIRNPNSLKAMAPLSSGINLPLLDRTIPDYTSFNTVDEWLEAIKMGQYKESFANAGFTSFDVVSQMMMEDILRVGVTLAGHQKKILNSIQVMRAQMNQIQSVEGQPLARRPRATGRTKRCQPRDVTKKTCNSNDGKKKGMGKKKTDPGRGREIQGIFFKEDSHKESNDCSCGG

[2] = molecular target: STE20-like serine/threonine-protein kinase (Homo sapiens, UniProt Q9H2G2)
[3] = molecular target: Ras-related protein Rab-6A (Homo sapiens, UniProt P20340)
[4] = molecular target: T3, Inhibitor of nuclear factor kappa-B kinase subunit epsilon (Homo sapiens, UniProt Q14164)
T3 sequence (Q14164 whole entry): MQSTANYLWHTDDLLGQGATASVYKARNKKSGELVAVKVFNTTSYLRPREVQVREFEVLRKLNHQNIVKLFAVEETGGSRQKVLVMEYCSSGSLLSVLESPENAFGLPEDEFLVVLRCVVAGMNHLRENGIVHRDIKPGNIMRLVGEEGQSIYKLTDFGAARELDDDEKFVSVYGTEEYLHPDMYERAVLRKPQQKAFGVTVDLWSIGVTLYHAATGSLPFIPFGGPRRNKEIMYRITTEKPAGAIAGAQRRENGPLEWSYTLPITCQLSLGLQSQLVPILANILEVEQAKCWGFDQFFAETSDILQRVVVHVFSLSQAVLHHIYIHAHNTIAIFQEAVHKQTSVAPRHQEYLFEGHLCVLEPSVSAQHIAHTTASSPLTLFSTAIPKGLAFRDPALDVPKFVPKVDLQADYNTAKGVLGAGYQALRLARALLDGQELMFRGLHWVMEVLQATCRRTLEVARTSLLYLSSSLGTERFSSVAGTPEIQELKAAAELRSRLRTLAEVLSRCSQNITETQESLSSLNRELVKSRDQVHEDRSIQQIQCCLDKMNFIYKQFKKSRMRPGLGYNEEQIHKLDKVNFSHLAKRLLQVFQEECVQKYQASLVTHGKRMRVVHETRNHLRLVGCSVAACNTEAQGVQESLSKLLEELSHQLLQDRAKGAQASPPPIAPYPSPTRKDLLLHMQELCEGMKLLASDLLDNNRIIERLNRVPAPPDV

[5] = molecular target: Mitogen-activated protein kinase 11 (Homo sapiens, UniProt Q15759)
[6] = molecular target: T4, Ferrochelatase, mitochondrial (Homo sapiens, UniProt P22830)
T4 sequence (P22830 whole entry): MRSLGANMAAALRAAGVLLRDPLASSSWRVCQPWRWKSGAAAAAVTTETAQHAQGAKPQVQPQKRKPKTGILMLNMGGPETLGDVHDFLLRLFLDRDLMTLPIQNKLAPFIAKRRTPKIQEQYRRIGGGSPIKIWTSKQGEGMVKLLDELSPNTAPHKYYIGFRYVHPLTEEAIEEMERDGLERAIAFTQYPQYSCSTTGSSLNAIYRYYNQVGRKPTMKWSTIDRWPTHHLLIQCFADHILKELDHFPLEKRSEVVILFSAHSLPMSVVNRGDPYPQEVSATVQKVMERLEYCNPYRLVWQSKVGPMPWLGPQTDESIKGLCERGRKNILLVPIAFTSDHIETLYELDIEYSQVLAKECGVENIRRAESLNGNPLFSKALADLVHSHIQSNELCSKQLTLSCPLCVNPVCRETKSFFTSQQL

Sequence of Ras-related protein Rab-6A (P20340 whole entry): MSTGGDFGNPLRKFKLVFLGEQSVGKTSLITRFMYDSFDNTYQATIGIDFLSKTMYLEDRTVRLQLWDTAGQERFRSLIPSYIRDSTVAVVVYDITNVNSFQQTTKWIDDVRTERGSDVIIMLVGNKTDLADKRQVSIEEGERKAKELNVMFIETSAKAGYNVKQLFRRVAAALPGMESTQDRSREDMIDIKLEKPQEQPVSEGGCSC
Sequence of Serine/threonine-protein kinase N2 (Q16513 whole entry): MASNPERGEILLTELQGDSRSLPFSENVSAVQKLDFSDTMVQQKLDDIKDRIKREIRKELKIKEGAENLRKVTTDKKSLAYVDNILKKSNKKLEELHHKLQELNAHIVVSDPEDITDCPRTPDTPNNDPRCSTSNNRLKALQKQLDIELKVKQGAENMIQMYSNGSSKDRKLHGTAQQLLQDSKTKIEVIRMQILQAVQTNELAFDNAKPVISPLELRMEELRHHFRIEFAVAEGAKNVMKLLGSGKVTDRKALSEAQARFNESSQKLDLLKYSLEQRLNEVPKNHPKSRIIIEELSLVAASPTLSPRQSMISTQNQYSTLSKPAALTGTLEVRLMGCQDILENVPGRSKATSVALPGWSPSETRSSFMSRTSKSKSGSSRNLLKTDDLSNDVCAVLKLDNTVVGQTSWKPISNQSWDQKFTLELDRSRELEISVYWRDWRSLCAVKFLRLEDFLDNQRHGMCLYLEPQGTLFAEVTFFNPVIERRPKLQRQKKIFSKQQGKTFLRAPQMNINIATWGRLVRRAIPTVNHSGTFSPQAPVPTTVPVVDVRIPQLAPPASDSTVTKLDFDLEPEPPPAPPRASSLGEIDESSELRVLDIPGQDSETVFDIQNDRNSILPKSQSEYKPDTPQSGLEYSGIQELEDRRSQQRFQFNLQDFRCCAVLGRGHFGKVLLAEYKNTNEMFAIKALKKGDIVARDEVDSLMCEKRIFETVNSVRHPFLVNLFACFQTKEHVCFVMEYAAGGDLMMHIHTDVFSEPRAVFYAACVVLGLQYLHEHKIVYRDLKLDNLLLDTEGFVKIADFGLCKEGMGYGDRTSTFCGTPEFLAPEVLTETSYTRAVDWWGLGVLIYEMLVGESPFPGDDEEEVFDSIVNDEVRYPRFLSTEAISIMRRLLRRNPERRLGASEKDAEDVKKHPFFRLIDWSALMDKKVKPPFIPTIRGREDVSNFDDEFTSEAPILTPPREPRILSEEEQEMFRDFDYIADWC
Sequence of STE20-like serine/threonine-protein kinase (Q9H2G2 whole entry): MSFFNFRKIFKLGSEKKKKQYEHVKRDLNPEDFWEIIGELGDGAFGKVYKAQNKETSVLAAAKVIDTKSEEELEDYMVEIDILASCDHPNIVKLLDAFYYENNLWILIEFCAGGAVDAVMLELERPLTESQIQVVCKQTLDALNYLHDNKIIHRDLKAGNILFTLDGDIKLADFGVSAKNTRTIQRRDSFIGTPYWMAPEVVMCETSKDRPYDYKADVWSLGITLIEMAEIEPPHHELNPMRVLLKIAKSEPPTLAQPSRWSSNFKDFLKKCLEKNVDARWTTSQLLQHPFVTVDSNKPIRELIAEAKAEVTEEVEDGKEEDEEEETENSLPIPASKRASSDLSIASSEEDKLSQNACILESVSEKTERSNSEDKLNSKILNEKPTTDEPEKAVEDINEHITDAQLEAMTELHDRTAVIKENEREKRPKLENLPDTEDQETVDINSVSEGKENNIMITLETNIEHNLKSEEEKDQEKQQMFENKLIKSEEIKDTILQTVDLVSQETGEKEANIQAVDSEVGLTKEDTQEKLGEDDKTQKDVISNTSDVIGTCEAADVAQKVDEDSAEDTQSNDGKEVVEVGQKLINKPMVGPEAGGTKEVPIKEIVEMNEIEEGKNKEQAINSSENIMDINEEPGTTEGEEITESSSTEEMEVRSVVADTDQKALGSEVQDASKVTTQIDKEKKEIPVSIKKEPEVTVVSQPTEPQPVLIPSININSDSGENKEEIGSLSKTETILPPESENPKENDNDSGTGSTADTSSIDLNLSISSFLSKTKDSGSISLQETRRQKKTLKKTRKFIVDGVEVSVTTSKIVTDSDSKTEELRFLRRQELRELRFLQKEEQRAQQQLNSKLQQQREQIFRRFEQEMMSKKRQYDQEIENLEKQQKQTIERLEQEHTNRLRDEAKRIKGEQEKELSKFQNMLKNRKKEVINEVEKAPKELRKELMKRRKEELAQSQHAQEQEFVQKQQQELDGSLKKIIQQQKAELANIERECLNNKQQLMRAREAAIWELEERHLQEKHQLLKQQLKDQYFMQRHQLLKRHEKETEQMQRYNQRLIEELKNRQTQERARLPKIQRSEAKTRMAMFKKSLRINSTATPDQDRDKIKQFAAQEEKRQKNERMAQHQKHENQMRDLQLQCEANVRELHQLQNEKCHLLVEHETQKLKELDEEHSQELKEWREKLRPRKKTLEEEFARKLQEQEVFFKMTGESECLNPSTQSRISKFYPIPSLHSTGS
Sequence of Mitogen-activated protein kinase 11 (Q15759 whole entry): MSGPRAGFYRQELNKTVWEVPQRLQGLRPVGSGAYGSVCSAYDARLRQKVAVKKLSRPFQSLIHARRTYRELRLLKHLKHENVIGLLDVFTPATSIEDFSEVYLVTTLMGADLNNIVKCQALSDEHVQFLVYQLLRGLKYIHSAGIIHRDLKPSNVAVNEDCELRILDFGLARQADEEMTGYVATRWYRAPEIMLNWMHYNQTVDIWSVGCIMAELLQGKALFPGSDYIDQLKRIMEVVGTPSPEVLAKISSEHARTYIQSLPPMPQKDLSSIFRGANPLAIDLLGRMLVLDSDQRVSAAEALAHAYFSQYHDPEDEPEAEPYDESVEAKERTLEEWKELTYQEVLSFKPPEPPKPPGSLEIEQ

Row | Kd (Pyridoxal kinase) | Kd [1] | Kd (Ephrin type-B receptor 2) | Kd [2] | Kd [3] | Kd [4] | Kd [5] | Kd [6] | SMILES
1 | > 30 µM (inactive) | > 30 µM (inactive) | > 30 µM (inactive) | > 30 µM (inactive) | > 30 µM (inactive) | > 30 µM (inactive) | > 30 µM (inactive) | > 30 µM (inactive) | CCN1CCN(Cc2ccc(Nc3ncc(F)c(-c4cc(F)c5nc(C)n(C(C)C)c5c4)n3)nc2)CC1 [ABEMACICLIB]
2 | > 30 µM (inactive) | > 30 µM (inactive) | > 30 µM (inactive) | > 30 µM (inactive) | > 30 µM (inactive) | > 30 µM (inactive) | > 30 µM (inactive) | > 30 µM (inactive) | CCc1cc2c(cc1N1CCC(N3CCOCC3)CC1)C(C)(C)c1[nH]c3cc(C#N)ccc3c1C2=O [ALECTINIB]
3 | > 30 µM (inactive) | > 30 µM (inactive) | > 30 µM (inactive) | > 30 µM (inactive) | > 30 µM (inactive) | > 30 µM (inactive) | > 30 µM (inactive) | > 30 µM (inactive) | COc1ccc2c(OCc3nnc4ccc(-c5ccccc5)nn34)ccnc2c1 [AMG-208]
4 | > 30 µM (inactive) | > 30 µM (inactive) | > 30 µM (inactive) | > 30 µM (inactive) | > 30 µM (inactive) | > 30 µM (inactive) | > 30 µM (inactive) | > 30 µM (inactive) | S=C(NCc1ccc2c(c1)OCO2)N1CCN(c2ncnc3c2oc2ccccc23)CC1 [AMUVATINIB]
5 | > 30 µM (inactive) | > 30 µM (inactive) | > 30 µM (inactive) | 0.686 µM (active) | > 30 µM (inactive) | > 30 µM (inactive) | > 30 µM (inactive) | > 30 µM (inactive) | Cc1cc(Nc2nc(N[C@@H](C)c3ncc(F)cn3)ncc2Cl)n[nH]1 [AZD-1480]
6 | > 30 µM (inactive) | > 30 µM (inactive) | > 30 µM (inactive) | > 30 µM (inactive) | > 30 µM (inactive) | > 30 µM (inactive) | > 30 µM (inactive) | 3.11 µM (active) | COc1ccc(-c2ccc3ncc4c(c3c2)n(-c2ccc(N3CCNCC3)c(C(F)(F)F)c2)c(=O)n4C)cn1 [BGT-226 FREE BASE]
7 | > 30 µM (inactive) | > 30 µM (inactive) | > 30 µM (inactive) | > 30 µM (inactive) | > 30 µM (inactive) | > 30 µM (inactive) | > 30 µM (inactive) | 2.63 µM (active) | COc1cc2nccc(Oc3ccc(NC(=O)C4(C(=O)Nc5ccc(F)cc5)CC4)cc3)c2cc1OC [CABOZANTINIB]
8 | > 30 µM (inactive) | > 30 µM (inactive) | > 30 µM (inactive) | > 30 µM (inactive) | > 30 µM (inactive) | > 30 µM (inactive) | > 30 µM (inactive) | 32.4 µM (active) | c1cc(OCCN2CCCCC2)cc(-c2n[nH]c3ccc(-c4nc[nH]n4)cc23)c1 [CC-401]
9 | > 30 µM (inactive) | > 30 µM (inactive) | > 30 µM (inactive) | > 30 µM (inactive) | > 30 µM (inactive) | > 30 µM (inactive) | > 30 µM (inactive) | > 30 µM (inactive) | COc1cc2ncnc(Nc3ccc(F)c(Cl)c3)c2cc1NC(=O)/C=C/CN1CCCCC1 [DACOMITINIB ANHYDROUS]
10 | > 30 µM (inactive) | > 30 µM (inactive) | > 30 µM (inactive) | 0.058 µM (active) | > 30 µM (inactive) | > 30 µM (inactive) | > 30 µM (inactive) | > 30 µM (inactive) | CC[C@@](C)(Nc1ccnc(-c2c[nH]c3ncccc23)n1)C(=O)NCC(F)(F)F [DECERNOTINIB]
11 | > 30 µM (inactive) | > 30 µM (inactive) | > 30 µM (inactive) | > 30 µM (inactive) | > 30 µM (inactive) | 1.32 µM (active) | > 30 µM (inactive) | > 30 µM (inactive) | COc1cc(Nc2ncc(F)c(Nc3ccc4c(n3)N(COP(=O)(O)O)C(=O)C(C)(C)O4)n2)cc(OC)c1OC [FOSTAMATINIB]

Row | SMILES | Kd (Pyridoxal kinase) | Kd [1] | Kd (Ephrin type-B receptor 2) | Kd [2] | Kd [3] | Kd [4] | Kd [5] | Kd [6]
12 | Cn1cc(-c2[nH]c3cc(NC(=O)[C@H](N)C4CCCCC4)cc4c3c2C=NNC4=O)cn1 | > 30 µM (inactive) | > 30 µM (inactive) | > 30 µM (inactive) | > 30 µM (inactive) | > 30 µM (inactive) | > 30 µM (inactive) | > 30 µM (inactive) | > 30 µM (inactive)
13 | Cc1c(NC(=O)OC[C@@H]2COCCN2)cn2ncnc(Nc3ccc4c(cnn4Cc4cccc(F)c4)c3)c12 [AC-480] | > 30 µM (inactive) | > 30 µM (inactive) | > 30 µM (inactive) | > 30 µM (inactive) | > 30 µM (inactive) | > 30 µM (inactive) | > 30 µM (inactive) | > 30 µM (inactive)
14 | CC1(COc2ccc3c(c2)ncn3-c2ccc3cccc(N4CCC(N)CC4)c3n2)COC1 [CRENOLANIB] | > 30 µM (inactive) | 1.21 µM (active) | > 30 µM (inactive) | > 30 µM (inactive) | > 30 µM (inactive) | > 30 µM (inactive) | > 30 µM (inactive) | 7.35 µM (active)
15 | CNC(=O)c1ccc(Nc2ncc(C(F)(F)F)c(NCc3nccnc3N(C)S(C)(=O)=O)n2)cc1 [DEFACTINIB] | > 30 µM (inactive) | > 30 µM (inactive) | > 30 µM (inactive) | 41 µM (active) | > 30 µM (inactive) | > 30 µM (inactive) | > 30 µM (inactive) | > 30 µM (inactive)
16 | CCc1nc(C(N)=O)c(Nc2ccc(N3CCC(N4CCN(C)CC4)CC3)c(OC)c2)nc1NC1CCOCC1 [GILTERITINIB] | > 30 µM (inactive) | > 30 µM (inactive) | > 30 µM (inactive) | 0.068 µM (active) | > 30 µM (inactive) | 1.47 µM (active) | > 30 µM (inactive) | > 30 µM (inactive)
17 | Cc1c(Cn2c(C)nc3c(C(=O)O)cc(N4CCOCC4)cc32)cccc1C(F)(F)F [GSK-2636771] | > 30 µM (inactive) | > 30 µM (inactive) | > 30 µM (inactive) | > 30 µM (inactive) | > 30 µM (inactive) | > 30 µM (inactive) | > 30 µM (inactive) | > 30 µM (inactive)
